From patent US9327013B2, “Activity enhancer for anticancer agent” (TOKYO UNIVERSITY OF SCIENCE FOUNDATION, priority 2011, dated 2016)
Square brackets hold non-standard residues; d marks the D form. Ends that are not written are not given here. Peptide text beside a SMILES is read from it. NMeE = CN[C@@H](CCC(=O)O)C(=O)O

Assay: Stability of peptide in human serum (residual adhesion inhibitory activity after serum incubation)
Type: in vitro ADME
Details: for stability of activity in human serum (in words): 500 μg/mL in 90% human serum, 0 to 56 hours, FIGS. 2A to 2D; for residual adhesion inhibitory activity after serum treatment: untreated FNIII14 = 100
Protocol: FNIII14 (500 μg/mL), each of the modified peptides (500 μg/mL), or a solution thereof was incubated in human serum (final concentration 90%; 0.01% of sodium azide as a preservative having been added thereto) under a condition of 37° C. and 5% CO2 for determined periods in a range of from 0 to 56 hours. Thereafter, each sample was diluted with DMEM (-) such that the peptide concentration in each well would be 25 μg/mL, and was inoculated onto a 96-well tissue culture plate together with A375SM cells prepared at 1.5×10^4/well, the 96-well tissue culture plate having been coated with 0.5 μg/mL of FN. After the plate was subjected to culturing for a certain time, […] of a PBS (-) solution containing 4% of formalin and 5% of sucrose was gently added to wells, and left to stand at room temperature for 1 hour, whereby the cells were immobilized. After the immobilization, the number of cells observed in predetermined four fields was counted and taken as the total number of cells. Non-adhered cells were removed by washing with a PBS (-) solution three times, and then the number of adhered cells in the same four fields as those mentioned above was counted under a microscope. Assuming that the adhesion inhibitory activity of FNIII14 that was not subjected to the treatment with serum was 100, the ratio of the residual adhesion inhibitory activity of FNIII14 or the modified peptide remaining after the serum treatment was evaluated in terms of percentage. In FIGS. 2A to 2C, white diamonds represent the results obtained using FNIII14, white squares represent the results obtained using Ace-FNIII14, white circles represent the results obtained using Met-FNIII14, and white triangles represent the results obtained using D-FNIII14. In FIG. 2D, black circles represent the activity of FNIII14, and black triangles represent the activity of D-Glu-FNIII14.

| stability of activity in human serum (in words) (37° C.) | increase of activity in the serum (90% human serum, 37° C.) [%] | residual adhesion inhibitory activity after serum treatment (90% human serum, 37° C.) | resistance to decomposition in human serum (aminopeptidase or the like in human serum) | time at which decomposition tendency was exhibited in serum (long term stability over 60 hours, FIG. 2D) [h] | residual adhesion inhibitory activity after serum treatment (after 20 hours in 90% human serum, 37° C., FIG. 2A) | Molecule |
| --- | --- | --- | --- | --- | --- | --- |
| more stabilized than FNIII14 |  |  |  |  |  | CC[C@H](C)[C@H](NC(=O)[C@@H](NC(=O)[C@H](Cc1ccc(O)cc1)NC(=O)[C@@H](NC(=O)[C@@H](NC(=O)[C@H](Cc1ccc(O)cc1)NC(=O)[C@H](CCC(=O)O)NC(=O)[C@@H](NC(=O)CNC(=O)[C@@H]1CCCN1C(=O)[C@H](CCC(=O)O)NC(=O)[C@H](CC(C)C)NC(=O)CNC(=O)[C@@H](NC(=O)[C@@H](NC(=O)[C@@H](NC(=O)[C@H](C)NC(=O)[C@H](CCC(=O)O)N(C)C(=O)[C@@H](N)[C@@H](C)O)[C@@H](C)O)[C@@H](C)CC)[C@@H](C)O)[C@@H](C)O)[C@@H](C)O)[C@@H](C)CC)C(C)C)C(=O)N[C@@H](C)C(=O)N[C@@H](CC(C)C)C(=O)O [Met-FNIII14, [N-Me-Glu]^2-FNIII14] (H-T[NMeE]ATITGLEPGTEYTIYVIAL-OH; N-terminus and C-terminus assumed) |
| more stabilized than FNIII14 |  |  |  |  |  | Ac-TEATITGLEPGTEYTIYVIAL (N-terminus assumed) [Ace-FNIII14] |
| rapidly lost its activity within 2 hours |  |  |  |  | about 60% | TEATITGLEPGTEYTIYVIAL [FNIII14, reference compound] |

| Molecule | stability of activity in human serum (in words) (37° C.) | increase of activity in the serum (90% human serum, 37° C.) [%] | residual adhesion inhibitory activity after serum treatment (90% human serum, 37° C.) | resistance to decomposition in human serum (aminopeptidase or the like in human serum) | time at which decomposition tendency was exhibited in serum (long term stability over 60 hours, FIG. 2D) [h] | residual adhesion inhibitory activity after serum treatment (after 20 hours in 90% human serum, 37° C., FIG. 2A) |
| --- | --- | --- | --- | --- | --- | --- |
| CC[C@H](C)[C@H](NC(=O)[C@@H](NC(=O)[C@H](Cc1ccc(O)cc1)NC(=O)[C@@H](NC(=O)[C@@H](NC(=O)[C@H](Cc1ccc(O)cc1)NC(=O)[C@H](CCC(=O)O)NC(=O)[C@@H](NC(=O)CNC(=O)[C@@H]1CCCN1C(=O)[C@H](CCC(=O)O)NC(=O)[C@H](CC(C)C)NC(=O)CNC(=O)[C@@H](NC(=O)[C@@H](NC(=O)[C@@H](NC(=O)[C@H](C)NC(=O)[C@@H](CCC(=O)O)NC(=O)[C@@H](N)[C@@H](C)O)[C@@H](C)O)[C@@H](C)CC)[C@@H](C)O)[C@@H](C)O)[C@@H](C)O)[C@@H](C)CC)C(C)C)C(=O)N[C@@H](C)C(=O)N[C@@H](CC(C)C)C(=O)O [D-Glu-FNIII14, T-[D-Glu]-ATITGLEPGTEYTIYVIAL] (H-T[dE]ATITGLEPGTEYTIYVIAL-OH; N-terminus and C-terminus assumed) | did not exhibit a decrease of its activity in the serum | ≥ 20 | over 100% | exhibited resistance to decomposition | ≥ 50 |  |
